According to patent publication US20120288533A1, “PROTEIN-POLYSACCHARIDE CONJUGATES AND USE FOR ENCAPSULATING NUTRACEUTICALS FOR CLEAR BEVERAGE APPLICATIONS” (Technion Research and Development Foundation Ltd., priority 2011, published 2012):
Values belong to the compound of their own block, whether it stands above or below them.

Key:
[1] = Simulated gastric digestion using Nile red (NR adsorption to glass, with and without pepsin); format: in vitro ADME; details: pepsin:CN mass ratio 1:20, pH 2.5, 2 hrs at 37° C.
Description: NR stock solution in ethanol was prepared at a concentration of 0.16 mg/ml=502.6 μM. NR was added during vortexing to the conjugate, mixture or buffer solution, at a concentration of 1.3 μM, to minimize inner filtering effect in fluorescence measurements.
Free NR in aqueous solution adsorbs to the glass walls, which may serve as a convenient way to study its release behavior from nanocapsules. To examine whether NR adsorbs to glass when in water, NR was added to 1 ml of water in a glass vial to a final concentration of 1.3 μM. The vial was left for 2 hrs, then the water was transferred to a new glass vial, and 1 ml of acetone was added to the new vial. At the same time 2 ml of water:acetone (1:1 vol/vol) solution was added to the first vial. After 1 hr both solutions were read for florescence intensity at ex:570, em:645 which is the intensity peak at water:acetone 1:1. Concentration was calculated from the intensity using a NR in water: acetone (1:1) calibration curve.
Then pepsin was added to some of the samples at a concentration of 0.15 mg/ml, in order to reach pepsin: CN mass ratio of 1:20 according to the method by Mandalari et al.^79. […] After 1 hr the acetone: water solution with NR which had adsorbed to the glass was read for fluorescence intensity (ex:570, em:645). NR fluorescence was measured with time to validate that no bleaching occurred during the procedure (data not shown).

[2] = Particle size distribution by DLS, RPH / RPH-MD samples with and without CLA or VD, with and without homogenization; format: physicochemical; details: 0.5% ethanol
Description: The conjugate samples were characterized as follows. Two mg/ml (on a protein base) solutions were prepared from the dry heated samples of RPH with and without MD and compared to the unheated control. The RPH-MD powder was dissolved in a pH 7 PBS and stirred overnight for complete hydration. The samples were filtered through 0.45 μm syringe filters (polyvinylidene fluoride, Durapore filter (Millipore, Carrigtwohill, Co. Cork, Ireland).
Additionally, the HN RPH-MD co-assembled particles were analyzed at different concentrations of the VD or CLA.
The dispersion of VD with and without RPH-MD was homogenized by Micro DeBee (Bee International Inc. South Easton Mass., USA) ultra-high pressure homogenizer: process pressure: 20-25 kpsi, Orifice diameter: 0.1 mm. The sample composition was 0.1% protein, 0.5% ethanol, VD concentration 0.02 mg/ml, buffer PBS pH 7. The sample volume subjected to homogenization was 25 ml. The influence of the homogenization process on particles size was evaluated by DLS measurements performed 2 hr after the homogenization.

[3] = Simulated shelf life of CLA at RT in pH 7 PBS with RPH-MD; format: physicochemical; details: after 14 days, neutral pH (pH 7 PBS), CLA 0.09 mg/ml, 0.5% ethanol, 1% protein
Description: (§1) The protection conferred by the RPH-MD against HN deterioration with time was evaluated. Different shelf life conditions of temperature 4° C. or 23° C. and pH, neutral or acidic, were tested. Neutral pH conditions were obtained by a pH7 PBS. Acidic conditions for CLA were obtained by a pH 3 citric buffer. Acidic conditions (pH 2.5) for VD were obtained by addition of HCl.
(§2) Following the incubation of HN co-assembled samples under the above shelf life conditions, HN extraction was carried out. Then the HN concentration in the samples was quantified using reversed phase HPLC(RP-HPLC), 4.6×100 mm C18-C2 column, on an Akta basic HPLC system equipped with a 3 simultaneous wavelengths UV detector (GE Healthcare, Waukesha, Wis., USA). The volume of the injection loop was 100 μl, and the operation temperature was 24° C.
(§3) The concentration of the vitamin D was 0.02 mg/ml, a high dosage intended for simulating beverage concentrates, which are later diluted during bottling, but must be colloidally and chemically stable. […]
(§4) To extract CLA, isopropanol (0.5 ml) was added to 0.5 ml sample. […] The separation of CLA was performed with a mobile phase of acetonitrile/water/acetic acid (70/30/0.12, v/v/v) at a flow rate of 1.5 ml/min and CLA was detected at 234 nm, which was found optimal in a spectrum scan (not shown).

[4] = CLA protection under acidic conditions (pH 3, 4° C.) with RPH-MD, RP-HPLC; format: physicochemical; details: CLA 0.09 mg/ml, 0.5% ethanol, 1% protein
Description: as §1, §2, §3, §4

[5] = Protection of VD against acidic pH treatment (pH 2.5, 2 hr, RT) with RPH-MD, RP-HPLC; format: physicochemical; details: pH 2.5 for 2 hr at RT; initial VD 0.02 mg/ml, 0.5% ethanol, 0.1% w/w protein
Description: as §1, §2, §3
(§5) Vitamin D extraction and HPLC quantification was based on Kazmi et al^57. […] Operating conditions were: ambient temperature (24±1° C.); mobile phase was methanol: acetonitrile: water (49.5:49.5:1 v/v); flow rate was 0.3 ml/min; and the absorbance was measured at 254 nm and 228 nm.

[6] = Shelf life of VD at RT and 4° C. in pH 7 PBS with RPH-MD; format: physicochemical; details: after 22 days of simulated shelf life at neutral pH and 4° C.; VD 0.02 mg/ml, 0.5% ethanol, 0.1% protein
Description: as §1, §2, §3, §5

Compound: CCN(CC)c1ccc2nc3c4ccccc4c(=O)cc-3oc2c1 [Nile Red (NR), Nile Red]
- effect of digestion with pepsin on binding of NR (in words) [1]: did not change the binding of NR to casein peptides

- CLA particle size by DLS ([2]; CLA in PBS pH 7 or 1% protein solutions, RPH-MD value at CLA 0.05-0.015 μg/ml): a few hundred
- residual percentage of CLA [3]: 0%
- residual percentage of CLA ([4]; after 1 day at pH 3.0 and 4° C.): about 20%
- residual percentage of CLA ([4]; after 4 days at pH 3.0 and 4° C.): ~0%
Compound: conjugated linoleic acid [CLA]

Compound: Vitamin D3 [Vitamin D3 (VD3)]
- VD particle size fraction by DLS, without homogenization ([2]; 0.1% protein, 0.02 mg/ml VD, pH 7 PBS): 100-200 nm
- residual VD [5]: 50%
- residual VD [6]: 28%
